Experimental data: PubChem BioAssay AID1985 (Southern Research Specialized Biocontainment Screening …, 2009)

These compounds were tested on S. Typhi PhoP-promoter GFP reporter, fluorescence, 4 h (assay: PhoP regulon inhibitor project modified counter assay, GFP fluorescence readout, dose response (AID 1985)).

Going from C=CCNc1ncnc2c1[nH]c1ccc(Cl)cc12 to Clc1ccc2[nH]c3c(c2c1)CCc1cn[nH]c1-3, the IC50 rises from 49.2 µM to 74.8 µM (1.5-fold). The first is the more potent here.

First: CCOc1ccc(Nc2c3ccccc3nc3ccccc23)cc1
Second: COc1cccc(Nc2cc(C)nc3ccccc23)c1
The IC50 of the first is 1.7-fold lower: 56.7 µM for the first, 98.8 µM for the second. The first is the more potent here.

Compared with C[C@H]1c2cccc(O)c2C(O)=C2C(=O)[C@]3(O)C(O)=C(C(N)=O)C(=O)[C@@H](N(C)C)C3[C@@H](O)C21 (stereo not given in full), O=C1C(O)=C(O)C(=O)c2ccccc21 is 75-fold higher in IC50: 1.19 µM for the first, 88.8 µM for the second. The first is the more potent here.

Compared with Cc1ccc(CC(=O)Nc2ncc([N+](=O)[O-])s2)cc1, Cc1cc([N+](=O)[O-])nn1CC(=O)N/N=C/c1ccccc1O is 2.7-fold lower in IC50: 94.4 µM for the first, 35.4 µM for the second. The second is the more potent here.

First: CN1CCN(CC(=O)N2CCn3c4c(c5cc(C6CCCCC6)ccc53)CCCC42)CC1 (stereo not given)
Second: Cc1ccc2c(c1)c1c(n2CC(O)CNC2CCCCC2)CCCC1 (stereo not given)
The IC50 of the first is 1.8-fold lower: 76.5 µM for the first, 136 µM for the second. The first is the more potent here.

First: CC(=O)NC(c1ccc2ccccc2c1)c1ccc2cccnc2c1O (stereo not given)
Second: CCCC(=O)NC(c1ccco1)c1cc([N+](=O)[O-])c2cccnc2c1O (stereo not given)
The IC50 of the first is 7.9-fold higher: 68.4 µM for the first, 8.65 µM for the second.

Cc1ccc2oc(=O)c(/C=C(\O)c3ccccc3)nc2c1 and N#C/C(=C(/O)c1ccco1)c1nc2ccccc2s1 are within 1.5-fold of each other in IC50: 46.7 µM for the first, 54.8 µM for the second.

Going from CCCCCCCCCCn1c2c(c(=N)c3c1CCC3)CCC2 to N=c1c2c(n(Cc3ccc(Cl)c(Cl)c3)c3c1CCC3)CCCC2, the IC50 falls from 144 µM to 80.1 µM (1.8-fold).

Compared with CCCCCCCCCCOC(=O)Cn1c(COc2cccc(OC)c2)[n+](C)c2ccccc21, CCN(CC)CCn1c(=N)n(CC(O)COc2cccc(C)c2)c2ccccc21 (stereo not given) is 4.7-fold higher in IC50: 18.1 µM for the first, 85.2 µM for the second.

Compared with O=C(N/N=C/c1ccc([N+](=O)[O-])s1)C(O)c1ccccc1 (stereo not given), CC(NCc1ccc(Cl)cc1)C(O)c1ccccc1 (stereo not given) is 3.8-fold higher in IC50: 33.4 µM for the first, 128 µM for the second. The first is the more potent here.

CCCCn1c(=N)n(CC(=O)c2ccc(Br)s2)c2ccccc21 and CCN(CC)c1ccc(CNc2nc3ccccc3n2C)cc1 are within 1.5-fold of each other in IC50: 78.7 µM for the first, 97.3 µM for the second.

COc1ccc(Cc2nnc(N/N=C/c3ccc(O)cc3)[nH]c2=O)cc1OC and Cc1cc(C)c2nc(C)cc(N/N=C/c3ccc(O)cc3)c2c1 are within 1.5-fold of each other in IC50: 54.8 µM for the first, 49.7 µM for the second.

COc1ccccc1C(C[N+](=O)[O-])c1c(N)n(C)c(=O)n(C)c1=O (stereo not given) and COc1cc([N+](=O)[O-])cc(/C=N/NC(=O)C(C)Nc2cccc(C)c2)c1O (stereo not given) are within 1.5-fold of each other in IC50: 79.1 µM for the first, 71.6 µM for the second.

Going from CN(C)CCNc1oc(COc2ccc(-c3ccccc3)cc2)nc1C#N to CN(C)CCCN(C(=O)COc1ccccc1)c1nc2ccc(Cl)cc2s1, the IC50 rises from 78.8 µM to 141 µM (1.8-fold). The first is the more potent here.

COc1ccc(N2C3=C(CC4=C2CC(C)(C)CC4=O)C(=O)CC(C)(C)C3)cc1 and CC1(C)CC(=O)c2c(nc3ccccc3c2N)C1 are within 1.5-fold of each other in IC50: 146 µM for the first, 143 µM for the second.

NC(=O)SCC(=O)Nc1ccc(Cl)cc1 and C/C(=N\NC(=O)c1ccc(Cl)cc1)c1ccccn1 are within 1.5-fold of each other in IC50: 45.1 µM for the first, 48.3 µM for the second.

First: CCN1CCCC1CNC(=O)C1CCN(Cc2nc(-c3cccc(Br)c3)oc2C)CC1 (stereo not given)
Second: CCOC(=O)N1CCN(Cc2cc(Cl)c3cccnc3c2O)CC1
The IC50 of the first is 3.8-fold higher: 143 µM for the first, 37.8 µM for the second.

First: CCCOc1ccc(C(=O)NNC(=S)NC(C)=O)cc1
Second: COc1ccc(C(=O)NNC(=S)NC(=O)c2ccccc2)cc1
The IC50 of the first is 1.6-fold lower: 52.3 µM for the first, 82.5 µM for the second.

First: NC(N)=N/N=C/c1ccc(OCc2ccc(Cl)cc2Cl)cc1
Second: COc1cc(/C=N/N=C(N)N)ccc1OCc1ccc(Cl)cc1
The IC50 of the first is 2.2-fold lower: 16.9 µM for the first, 36.7 µM for the second. The first is the more potent here.

First: Clc1cccc(/C=N\Nc2nccs2)c1
Second: O=[N+]([O-])c1ccc(O)c(/C=N/Nc2ccccn2)c1
The IC50 of the first is 3.9-fold higher: 58.9 µM for the first, 15.2 µM for the second. The second is the more potent here.

O=C(Nc1ccccc1)Oc1ccc[nH]c1=O and O=C(Nc1csc(Cl)c1)c1ccccc1 are within 1.5-fold of each other in IC50: 55.8 µM for the first, 43.6 µM for the second.

Going from O=c1c2c([nH]c3ccccc13)CCCCC2 to CC(Nc1nc(N2CCCC2)nc2ccccc12)c1ccccc1 (stereo not given), the IC50 rises from 78.4 µM to 149 µM (1.9-fold). The first is the more potent here.

First: CNCCCCOc1ccc(C(C)(C)C)cc1Cl
Second: Clc1c(OCCCn2ccnc2)ccc2ccccc12
The IC50 of the first is 2.4-fold lower: 61 µM for the first, 149 µM for the second. The first is the more potent here.

First: Cc1ccc(S(=O)(=O)CCC(=O)c2ccc(O)cc2O)cc1
Second: CCCCn1c(NS(=O)(=O)c2ccccc2)c(S(=O)(=O)c2ccc(C)cc2)c2nc3ccccc3nc21
The IC50 of the first is 1.6-fold lower: 69.1 µM for the first, 114 µM for the second.

Compared with CN1CCN(C2=Cc3cc(Cl)ccc3Sc3cc(F)ccc32)CC1, CCn1cc(C(=O)O)c(=O)c2cc(F)c(N3CCN(C(=S)NC(=O)c4cccc(F)c4)CC3)cc21 is 5-fold lower in IC50: 137 µM for the first, 27.2 µM for the second.

Compared with COc1cccc(NC2=NC3(CCCCC3)N=C(N)N2)c1, Cc1cc(C)c2c(N)c3ccccc3nc2n1 is 1.7-fold lower in IC50: 147 µM for the first, 86 µM for the second. The second is the more potent here.

O=C(C[n+]1cc(Br)cc2ccccc21)c1ccc(Cl)cc1 and O=C(Nc1nnc(C2COc3ccccc3O2)o1)c1ccc(F)cc1 (stereo not given) are within 1.5-fold of each other in IC50: 57.8 µM for the first, 40.9 µM for the second.

Compared with CC1CCc2cc(F)cc3c(=O)c(C(=O)O)cn1c23 (stereo not given), CCn1cc(C(=O)O)c(=O)c2cc(F)c(N3CCNCC3)cc21 is lower in IC50: 9.57 µM for the first, under 0.23 µM for the second.

First: O=C(N/N=C\C=C\c1ccc([N+](=O)[O-])o1)c1cccs1
Second: COc1cc(/C=N/NC(=O)c2cncc(Br)c2)cc([N+](=O)[O-])c1O
The IC50 of the first is higher: 27.8 µM for the first, under 0.23 µM for the second.

Compared with CC(NCc1ccc(Cl)c(Cl)c1)C(O)c1ccccc1 (stereo not given), COc1ccccc1CNCCc1ccc(F)cc1 is 2.3-fold lower in IC50: 82.3 µM for the first, 36 µM for the second.

Cc1nnc(N/N=C/c2ccccn2)[nH]c1=O and O=C1c2cccc3cccc(c23)C(=O)C1(O)O are within 1.5-fold of each other in IC50: 31.1 µM for the first, 28.8 µM for the second.

First: Cc1ccc(C[n+]2c(-c3ccc(C)cc3)cc(-c3ccc(C)cc3)cc2-c2ccc(C)cc2)cc1
Second: COc1cc([N+](=O)[O-])cc(/C=N/NC(=O)C(O)(c2ccccc2)c2ccccc2)c1O
The IC50 of the first is 3.7-fold lower: 15.6 µM for the first, 57.5 µM for the second.

COc1cc(/C=C/[N+](=O)[O-])ccc1O and C/C(=N\N=C(N)N)c1ccc(Cl)c(Cl)c1 are within 1.5-fold of each other in IC50: 53.4 µM for the first, 51.5 µM for the second.

Going from C#CCOCCOCCOCCNc1nc(N2CCN(C(=O)CCCCCCCCCCNC(=O)[C@H]([C@@H](C)CC)n3cc(CCCCN=C(N)N)nn3)CC2)nc(N2CCN(C(=O)CCCCCCCCCCNC(=O)[C@H](CCCCN)n3cc(C)nn3)CC2)n1 to C#CCOCCOCCOCCNc1nc(N2CCN(C(=O)CCCCCCCCCCNC(=O)Cn3cc(CCCCCN)nn3)CC2)nc(N2CCN(C(=O)CCCCCCCCCCNC(=O)[C@H]([C@@H](C)CC)n3cc(CCCCN=C(N)N)nn3)CC2)n1, the IC50 falls from 69.3 µM to 36.8 µM (1.9-fold).

Going from CC(=O)Nc1cccc(NC(=O)Nc2ccc(F)cc2F)c1 to CC(=O)NNC(=S)NC(=O)c1ccccc1, the IC50 falls from 114 µM to 22.7 µM (5-fold).

Going from O=[N+]([O-])c1cc(CN2CCN(c3cccc(C(F)(F)F)c3)CC2)c2cccnc2c1O to CCn1cc(C(=O)O)c(=O)c2cc(F)c(N3CCN(C(=S)NC(=O)c4cccc(C)c4)CC3)cc21, the IC50 falls from 34.6 µM to 8.37 µM (4.1-fold). The second is the more potent here.

First: CC[C@H]1OC(=O)[C@H](C)[C@@H](O[C@H]2C[C@@](C)(OC)[C@@H](O)[C@H](C)O2)[C@H](C)[C@@H](O[C@@H]2O[C@H](C)C[C@H](N(C)C)[C@H]2O)[C@](C)(O)C[C@@H](C)[C@@H]2N[C@@H](COCCOC)O[C@H]([C@H]2C)[C@]1(C)O
Second: CO[C@@]1(NC(=O)C2SC(=C(C(N)=O)C(=O)O)S2)C(=O)N2C(C(=O)O)=C(CSc3nnnn3C)CS[C@@H]21 (stereo not given in full)
The IC50 of the first is 3.5-fold higher: 45.4 µM for the first, 13.1 µM for the second. The second is the more potent here.

CCN1c2ccccc2NC2N=C(OC)C(c3ccccc3)C21 (stereo not given) and O=C(CN1CC(c2ccccc2)CC1=O)N/N=C/c1cc(Br)ccc1O (stereo not given) are within 1.5-fold of each other in IC50: 55.8 µM for the first, 46.4 µM for the second.

Going from NC1=NC[C@H](Cc2ccccc2)N1CCCCC1CCCCC1 to CC(C)[C@@H]1CC[C@@H](C)C[C@H]1OC(=O)C[n+]1cc(-c2ccc(Cl)cc2)n2c1CCCCC2, the IC50 rises from 36.1 µM to 142 µM (3.9-fold). The first is the more potent here.

First: CNc1nc(SC)n(C)c(=O)c1N=O
Second: CCCCCCCCCCCCCCCC[n+]1ccc(/C=N/O)cc1
The IC50 of the first is 2.3-fold higher: 80.3 µM for the first, 34.2 µM for the second.
